pIC50: −log10 of the molar value. Where a name gives a salt, the structure may show the parent alone.

As a reminder, the pIC50 is the negative decadic logarithm of the IC50, by convention in mol/L. Lower therefore signals a high IC50. A word on the ED50: it is the dose that gives a 50% effect, or the effect in half of the subjects.

Assay [1] relates to PAF-mediated bronchoconstriction in guinea pigs. The assay is described as follows: PAF-induced Pulmonary Inflation Pressure (PIP) Increase test (Test B). The assay is classed as in vivo, guinea pig. The settings on record: PAF 100 ng/kg iv, slowly decreases to baseline. Here is the method:
Furthermore, in view of their usefulness as PAF receptor antagonists, the compounds of formula I have been found useful as inhibitors of PAF-mediated bronchoconstriction, which property was evaluated by the PAF-induced Pulmonary Inflation Pressure (PIP) Increase test (Test B) as follows:
Male guinea pigs, weighing between 300 and 400 gm, are anesthetized, after which time trachea tube, carotid and jugular catheters are inserted. The test animal is then force ventilated employing a small animal Harvard respirator and the resistance to lung inflation (PIP) is measured utilizing a pressure transducer and recorder. The test compound is administered either orally at 30 minutes prior to or intravenously (jugular) at 5 minutes prior to the introduction of PAF. The PAF (C18 -Sandoz, Hanover) is dissolved in Tris-Tyrode's bovine serum albumin buffer and administered intravenously (jugular) at 100 ng/kg. Any blood pressure measurements taken are recorded from a transducer attached to the carotid catheter. […] A reading at 15 minutes after the administration of PAF is termed the endpoint PIP. The effect of the test compound on the PIP response is determined by the difference between the percent increase in maximal PIP over baseline for the test animal to which has been administered PAF and the test compound compared to the test animal to which only PAF has been administered.

Assay [2] relates to PAF-induced hypotension in Wistar rats. The assay is described as follows: Inhibition of PAF-induced hypotension (Test D). It is filed as in vivo, rat (male Wistar). The settings on record: male Wistar rats. Here is the method: Yet still further, the compounds of formula I are useful as inhibitors of PAF-induced hypotension as measured by their ability to inhibit the lowering of blood pressure levels induced by PAF according to the following test (Test D):
Male Wistar rats, weighing approximately 300 gm, are anesthetized and their carotid arteries cannulated to enable their diastolic and systolic arterial blood pressure measurements to be recorded. PAF is then administered intravenously at either 100 or 500 ng/kg, and the blood pressure drop (within 10 sec.) and recovery time required to reach the pre-injection blood pressure level are measured. At 100 ng/kg, a 30% decrease in blood pressure and a 3 to 4 minute recovery time are observed, whereas at 500 ng/kg, a 52% decrease in blood pressure and a 10 minute recovery time are observed. In order to measure the effectiveness of a compound for both the inhibition of blood pressure decreases and shortening of the recovery time, the test compound is administered intravenously over a range of between 5 and 7 dosage levels (1 or 2 test animals per dose) and between 1 and 5 minutes prior to the introduction of PAF to generate an ED50.

In assay [3] the target is T1, Human Platelet PAF Receptor (Homo sapiens, UniProt P25105).
T1 construct: from tissue; host or cells: washed human platelets from blood of healthy donors
T1 sequence (P25105 whole entry): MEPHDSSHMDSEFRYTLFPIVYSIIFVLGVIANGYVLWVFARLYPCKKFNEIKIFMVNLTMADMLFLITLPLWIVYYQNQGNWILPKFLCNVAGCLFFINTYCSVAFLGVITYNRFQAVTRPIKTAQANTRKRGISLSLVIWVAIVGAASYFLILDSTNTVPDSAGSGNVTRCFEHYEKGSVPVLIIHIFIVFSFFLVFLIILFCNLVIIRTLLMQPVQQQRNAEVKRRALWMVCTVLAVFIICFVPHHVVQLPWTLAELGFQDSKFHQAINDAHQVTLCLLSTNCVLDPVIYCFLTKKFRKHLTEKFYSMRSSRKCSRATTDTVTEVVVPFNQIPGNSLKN
The assay is described as follows: Human Platelet PAF Receptor Assay test (Test A): inhibition of specific binding of [3H]-PAF to platelets. Particulars: [3H]-PAF specific binding to human platelets, room temperature, one hour. Here is the method: Human blood is obtained by venipuncture of healthy, human donors into an anti-coagulant mixture containing 3.15% of trisodium citrate and 20 μg/ml of Prostaglandin I2 (PGI2) in a ratio of blood to anti-coagulant of 9:1. Platelet rich plasma (PRP) is prepared by centrifugation (250×g) of the blood for 20 minutes at room temperature. The PRP is then centrifuged (900×g) for 10 minutes at room temperature and the platelet pellet is washed two times with Tris-Tyrode's (TT) solution having a pH of 7.4 and containing 0.25% bovine serum albumin (BSA), and to which has been added PGI2 at a final concentration of […]. The platelets are resuspended at […] in TT/BSA containing 1.4 mM CaCl2.2H2 O and 0.7 mM MgCl2.6H2 O. All of the tests are conducted in duplicate and each of the test compounds is evaluated at concentrations of 100, 50, 1 and 0.1 μM. For each determination, the following solutions are mixed:
500 μl of the above-described platelets;
10 μl of [^3 H]-PAF (40,000 counts per minute (cpm) to a final concentration of […]); and
10 μl of the test compound at 50× the desired final concentration,
10 μl of vehicle (total bound), or
10 μl of 1.85×10^-5 M cold PAF (non-specifically bound).
Each mixture is allowed to incubate at room temperature for one hour, after which time the reaction is terminated by the addition of 500 μl of ice cold TT/BSA and centrifugation (900×g) at 4° C. for 10 minutes. […] An additional 2 ml. of Scintiverse II is then added to the vials and, after mixing, the vials are counted for 1 minute in a liquid scintillation spectrometer. The amount of specific binding is calculated as the difference in cpm between the total bound [^3 H]-PAF and non-specifically bound [^3 H]-PAF. The percent inhibition of specific binding is determined by dividing the cpm specifically bound in the presence of the test compound by the cpm specifically bound in total, multiplying by 100 and then subtracting from 100. […]

The test system of assay [4] is PAF-mediated extravasation in guinea pigs. The assay is described as follows: PAF-induced Extravasation test (Test C), hemoconcentration (hematocrit). The assay is classed as in vivo, guinea pig. The settings on record: Cavia porcellus, ia, PAF 100 ng/kg iv, inhibition of percent increase in hematocrit. Here is the method: Still further, the compounds of formula I are useful as inhibitors of PAF-mediated extravasation (the extrusion of plasma from the lumen of the blood vessels into the vessel wall and surrounding tissues) measured as a function of hemoconcentration according to the PAF-induced Extravasation test (Test C) as follows.
Male guinea pigs, weighing between 300 and 400 gm, are anesthetized, after which time a femoral catheter is inserted. The test compound is administered intraarterially at one to five minutes prior to the introduction of PAF. The PAF (C18 -Sandoz, Hanover) is dissolved in Tris-Tyrode's bovine serum albumin buffer and administered intravenously (jugular) at 100 ng/kg.
To determine the hematocrit value, which is employed to index hemoconcentration and is defined as the percent of packed red blood cells in a sample of blood which is centrifuged to separate plasma from the cellular components, blood samples are collected in 50 μl heparinized hematocrit tubes. […] The tubes are then centrifuged and the percent of packed red blood cells (hematocrit) is measured (PAF induces a maximal increase in hematocrit at 5 to 7 minutes subsequent to the injection of PAF). The percent increase in hematocrit over the value prior to the injection of PAF is calculated. […]

In assay [5] the test system is human platelet aggregation (PAF-induced). The assay is described as follows: Platelet Aggregation Inhibition Assay test (PAIA test): inhibition of PAF-induced human platelet aggregation in vitro. Particulars: PAF-induced human platelet aggregation in PRP, 37° C., C-16 PAF 0.1 μM or 0.01 μM. It is filed as cell-based. Here is the method: All of the compounds of formula I are useful as platelet activating factor inhibitors as indicated by their ability to inhibit platelet activating factor (PAF)-induced human platelet aggregation in vitro according to the Platelet Aggregation Inhibition Assay test (PAIA test) as follows:
Human subjects are kept aspirin free for one week and fasted overnight. Platelet rich plasma (PRP) is prepared by centrifugation (200×g.) of freshly drawn blood, anti-coagulated with 0.38% sodium citrate (final concentration). Platelet count is adjusted to 250,000 per μl using platelet poor plasma (PPP) obtained by a second centrifugation (700×g.) of the blood sample. An aliquot (0.38 ml.) of the PRP is dispensed into cuvettes and maintained at room temperature (22° C.) until used (but for not more than two hours). The PRP-containing cuvettes are incubated at 37° C. and stirred at 900 rpm within a Payton Aggregometer which is activated to follow the light deflection pattern prior to the addition of the test compound. […] Between one and two minutes after the addition of the test compound, the aggregation inducing agent (C-16 PAF-Sandoz-Hanover), dissolved in a buffer consisting of 0.01M Tris-Tyrodes buffer with 0.25% bovine serum albumin (pH 7.4), is added to the PRP-containing cuvettes in an amount predetermined to give a consistent aggregation response (either 0.1 μM or 0.01 μM). All aggregations are allowed to proceed for 6 minutes from the addition of the inducing agent. The aggregation response is quantitated by determining the area under the curve (AUC). The AUC calculated for the inducing agent alone is considered to be one hundred percent. The potential percent inhibition of the aggregation response is determined by dividing the AUC generated in the presence of the compound by the AUC of the inducing agent alone, multiplying by 100 and then subtracting from 100.

With “1-O-alkyl-2-acetyl-sn-glyceryl-3-phosphorylcholine [PAF]”, in assay [1], the “duration of long term PIP response” value is “at least 30 minutes”. Moreover, the “decrease in blood pressure” value in assay [2] (PAF 100 ng/kg iv) amounted to 30%. For the same molecule, in assay [2] (PAF 500 ng/kg iv), the “decrease in blood pressure” value turned out to be 52% and the “recovery time to pre-injection blood pressure level” value worked out at 10 min.
With `CCCCCCCCCCCCCCCCCCOCCC1(COP(=O)([O-])OCC[n+]2ccsc2)CCC(=O)O1` (stereo not shown) [Example 1, 3-[2-[(2-Octadecyloxy)ethyl-5-oxo-tetrahydrofuran-2-yl]methoxyhydroxyphosphinyloxy-ethane]thiazolium hydroxide-inner salt-4-oxide], the results for the negative logarithm of the IC50 (pIC50) in assay [3] and in assay [5] were 5.74 and 4.98, respectively. In addition, the ED50 in assay [4] was found to be 0.25 mg/kg.
As to `CCCCCCCCCCCCCCCCCCOCC1(COP(=O)([O-])OCC[n+]2ccsc2)CCCO1` (stereo not shown) [Example 2, 3-[2-[(2-Octadecyloxymethyltetrahydrofuran-2-yl-methoxy)-hydroxyphosphinyloxy]-ethane]-thiazolium hydroxide inner salt-4-oxide], the results for the pIC50 in assay [3] and in assay [5] were 5.48 and 4.09, respectively.
For `CCCCCCCCCCCCCCCCCCNC(=O)OCC1(COP(=O)([O-])OCC[n+]2ccsc2)CCCO1` (stereo not shown) [Example 3, 3-[2-[(2-Octadecylaminocarbonyloxymethyltetrahydrofuran-2-yl-methoxy)-hydroxyphosphinyloxy]-ethane]-thiazolium hydroxide inner salt-4-oxide], the pIC50 in assay [3] was 6.33; in assay [5], 5.46. For the same molecule, the ED50 in assay [2] (Rattus norvegicus, iv, PAF-induced hypotension) worked out at 1.5 mg/kg; in assay [4], 0.3 mg/kg.

The values are drawn from US4619917A, “Substituted 2-furanyl- or 5-oxo-2-furanyl methoxy phosphoryl alkyl cyclimmonium salts” (Sandoz Pharm. Corp., priority 1985, dated 1986).
